Reference: the supplement of paper PMC10307832

Key:
Test in all cases: relative viability (nuclei count vs DMSO), 5 days (fraction); higher = more cells survive
FH535 + OSI-027 = compound: CC1=C(C=CC(=C1)[N+](=O)[O-])NS(=O)(=O)C2=C(C=CC(=C2)Cl)Cl [FH535] + COc1cccc2cc(-c3nc([C@H]4CC[C@H](C(=O)O)CC4)n4ncnc(N)c34)[nH]c12 [OSI-027] (partner 0.5 µM)
In short: (§1)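 Relative viability equals treated-well nuclei counts divided by vehicle-well nuclei counts. Counts came from 4× images of lung cancer cell lines grown in 1536-well plates for 5 days after pin-tool dosing on the day after seeding. Dosing used one drug alone or a fixed anchor-drug dose plus five library-drug doses (not always all listed) in √10 steps, and values are medians of duplicate plates.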

FH535 + Crizotinib = compound: CC1=C(C=CC(=C1)[N+](=O)[O-])NS(=O)(=O)C2=C(C=CC(=C2)Cl)Cl [FH535] + C[C@@H](Oc1cc(-c2cnn(C3CCNCC3)c2)cnc1N)c1c(Cl)ccc(F)c1Cl [Crizotinib] (partner 1 µM)
In short: as §1

FH535 + Bortezomib = compound: CC1=C(C=CC(=C1)[N+](=O)[O-])NS(=O)(=O)C2=C(C=CC(=C2)Cl)Cl [FH535] + CC(C)C[C@H](NC(=O)[C@H](Cc1ccccc1)NC(=O)c1cnccn1)B(O)O [Bortezomib] (partner 0.002 µM)
In short: as §1

FH535 + Pemetrexed = compound: CC1=C(C=CC(=C1)[N+](=O)[O-])NS(=O)(=O)C2=C(C=CC(=C2)Cl)Cl [FH535] + Nc1nc2[nH]cc(CCc3ccc(C(=O)N[C@@H](CCC(=O)O)C(=O)O)cc3)c2c(=O)[nH]1 [Pemetrexed] (partner 0.2 µM)
In short: as §1

FH535 + Decitabine = compound: CC1=C(C=CC(=C1)[N+](=O)[O-])NS(=O)(=O)C2=C(C=CC(=C2)Cl)Cl [FH535] + Nc1ncn([C@H]2C[C@H](O)[C@@H](CO)O2)c(=O)n1 [Decitabine] (partner 2 µM)
In short: as §1

Cell Line | relative viability (FH535 + OSI-027; first compound 0.04 µM) | relative viability (FH535 + OSI-027; first compound 0.1265 µM) | relative viability (FH535 + OSI-027; first compound 0.4 µM) | relative viability (FH535 + OSI-027; first compound 1.265 µM) | relative viability (FH535 + Crizotinib; first compound 0.04 µM) | relative viability (FH535 + Crizotinib; first compound 0.1265 µM) | relative viability (FH535 + Crizotinib; first compound 0.4 µM) | relative viability (FH535 + Crizotinib; first compound 1.265 µM) | relative viability (FH535 + Bortezomib; first compound 0.04 µM) | relative viability (FH535 + Bortezomib; first compound 0.1265 µM) | relative viability (FH535 + Bortezomib; first compound 0.4 µM) | relative viability (FH535 + Bortezomib; first compound 1.265 µM) | relative viability (FH535 + Pemetrexed; first compound 0.04 µM) | relative viability (FH535 + Pemetrexed; first compound 0.1265 µM) | relative viability (FH535 + Pemetrexed; first compound 0.4 µM) | relative viability (FH535 + Pemetrexed; first compound 1.265 µM) | relative viability (FH535 + Decitabine; first compound 0.04 µM) | relative viability (FH535 + Decitabine; first compound 0.1265 µM) | relative viability (FH535 + Decitabine; first compound 0.4 µM) | relative viability (FH535 + Decitabine; first compound 1.265 µM)
LOU-NH91 | 0.708 | 0.815 | 0.557 | 0.397 | 0.622 | 0.721 | 0.698 | 0.477 | 0.504 | 0.497 | 0.527 | 0.37 | 0.377 | 0.428 | 0.429 | 0.457 | 0.759 | 0.823 | 0.788 | 0.64
LU99A | 0.241 | 0.304 | 0.284 | 0.279 | 0.508 | 0.598 | 0.604 | 0.584 | 0.726 | 1.01 | 1.05 | 0.948 | 0.148 | 0.171 | 0.199 | 0.239 | 0.789 | 0.944 | 0.841 | 0.794
LXF-289 | 0.735 | 0.809 | 0.688 | 0.69 | 0.795 | 0.832 | 0.74 | 0.567 | 0.96 | 0.996 | 0.928 | 0.723 | 0.775 | 0.948 | 0.95 | 0.751 | 0.357 | 0.422 | 0.369 | 0.336
NCI-H23 | 0.408 | 0.471 | 0.642 | 0.546 |  | 0.555 | 0.584 | 0.581 |  | 1.25 | 1.04 | 1.11 | 0.517 | 0.782 | 0.625 | 0.436 | 0.299 | 0.31 | 0.347 | 0.318
NCI-H322M | 0.543 | 0.54 | 0.577 | 0.394 | 0.819 | 0.906 | 1.03 | 1.04 | 1.21 | 1.14 | 1.07 | 1.08 | 0.559 | 0.67 | 0.633 | 0.587 | 0.677 | 0.711 | 0.694 | 0.682
NCI-H441 | 0.529 | 0.559 | 0.508 | 0.527 | 0.603 | 0.797 | 0.768 | 0.628 | 0.356 | 0.351 | 0.376 | 0.293 | 0.232 | 0.254 | 0.231 | 0.257 | 0.221 | 0.263 | 0.265 | 0.252
NCI-H460 | 0.612 | 0.754 | 0.542 | 0.375 | 1.04 | 0.991 | 1.08 | 0.652 | 0.984 | 1.24 | 1.16 | 0.668 | 0.0603 | 0.0608 | 0.0625 | 0.0646 | 0.442 | 0.608 | 0.493 | 0.347
NCI-H520 | 0.199 | 0.286 | 0.296 | 0.192 | 0.716 | 0.893 | 0.803 | 0.754 | 0.304 | 0.239 | 0.522 | 0.601 | 0.737 | 0.818 | 0.585 | 0.659 | 0.462 | 0.488 | 0.521 | 0.355
NCI-H596 | 0.697 | 0.551 | 0.55 | 0.652 | 1.02 | 1.02 | 1.08 | 0.929 | 0.915 | 1.09 | 1.19 | 0.952 | 0.499 | 0.507 | 0.454 | 0.507 | 0.983 | 1.06 | 1 | 0.976
NCI-H647 | 0.486 | 0.809 | 0.673 | 0.543 | 1.26 | 1.02 | 1.1 | 0.895 | 0.964 | 0.584 | 0.818 | 0.95 | 0.2 | 0.219 | 0.187 | 0.152 | 0.311 | 0.362 | 0.364 | 0.334
NCI-H650 | 0.465 | 0.515 | 0.433 | 0.344 | 0.694 | 0.854 | 0.738 | 0.567 | 0.704 | 0.854 | 0.794 | 0.506 | 0.926 | 0.956 | 0.915 | 0.68 | 0.315 | 0.359 | 0.333 | 0.32
NCI-H661 | 0.688 | 0.704 | 0.67 | 0.46 | 1.08 | 0.955 | 0.931 | 0.797 | 0.735 | 0.839 | 0.767 | 0.532 | 0.903 | 0.96 | 0.839 | 0.66 | 0.546 | 0.609 | 0.566 | 0.46
NCI-H838 | 0.388 | 0.423 | 0.388 | 0.328 | 0.959 | 0.962 | 0.797 | 0.654 | 0.701 | 0.713 | 0.694 | 0.575 | 0.249 | 0.233 | 0.216 | 0.204 | 0.39 | 0.498 | 0.387 | 0.345
NCI-H1355 | 0.366 | 0.466 | 0.349 | 0.303 | 0.929 | 1.14 | 0.977 | 0.555 | 1.09 | 1.2 | 1.15 | 1.03 | 1.03 | 1.05 | 0.984 | 0.91 | 0.334 | 0.325 | 0.368 | 0.36
NCI-H1437 | 0.862 | 0.851 | 0.647 | 0.434 | 0.9 | 0.831 | 0.772 | 0.344 | 0.427 | 0.624 | 0.303 | 0.286 | 0.297 | 0.328 | 0.284 | 0.2 | 0.526 | 0.554 | 0.488 | 0.344
NCI-H1650 | 0.558 | 0.591 | 0.456 | 0.523 | 1.01 | 1.09 | 1.15 | 0.839 | 0.198 | 0.195 | 0.184 | 0.2 | 0.408 | 0.371 | 0.355 | 0.306 | 0.323 | 0.427 | 0.46 | 0.442
NCI-H1651 | 0.675 | 0.695 | 0.618 | 0.507 | 0.856 | 0.81 | 0.853 | 0.611 | 0.876 | 0.911 | 0.889 | 0.779 | 0.568 | 0.595 | 0.551 | 0.553 | 0.562 | 0.602 | 0.622 | 0.447
NCI-H1666 | 0.866 | 0.843 | 0.777 | 0.705 | 1.06 | 0.979 | 0.956 | 0.871 | 0.725 | 0.882 | 0.705 | 0.625 | 0.838 | 0.834 | 0.948 | 0.794 | 0.718 | 0.686 | 0.733 | 0.626
NCI-H1734 |  | 0.633 | 0.55 | 0.503 | 0.625 | 0.691 | 0.648 | 0.588 | 0.775 | 0.894 | 0.771 | 0.828 | 0.45 | 0.434 | 0.415 | 0.388 | 0.501 | 0.501 | 0.56 | 0.471
NCI-H1755 | 0.552 | 0.675 | 0.683 | 0.629 | 0.931 | 0.859 | 0.801 | 0.776 | 0.982 | 0.951 | 0.793 | 0.817 | 0.406 | 0.42 | 0.342 | 0.413 | 0.667 | 0.725 | 0.679 | 0.699
NCI-H1792 | 0.636 | 0.661 | 0.667 | 0.524 | 0.967 | 0.963 | 0.907 | 0.632 | 0.971 | 0.932 | 0.835 | 0.688 | 0.708 | 0.807 | 0.673 | 0.54 | 0.564 | 0.523 | 0.506 | 0.457
NCI-H1915 | 0.542 | 0.683 | 0.552 | 0.525 | 0.907 | 0.871 | 0.867 | 0.688 | 0.955 | 0.855 | 0.986 | 0.904 | 0.472 | 0.522 | 0.498 | 0.487 | 0.243 | 0.252 | 0.263 | 0.265
NCI-H1975 | 0.721 | 0.705 | 0.584 | 0.534 | 1.06 | 1.08 | 0.948 | 0.842 | 0.312 | 0.381 | 0.374 | 0.338 | 0.286 | 0.309 | 0.277 | 0.275 | 0.375 | 0.383 | 0.351 | 0.365
NCI-H1993 | 0.556 | 0.522 | 0.531 | 0.617 | 0.809 | 0.911 | 0.589 | 0.609 | 1.01 | 0.927 | 0.895 | 0.811 | 0.539 | 0.611 | 0.523 | 0.463 | 0.563 | 1.13 | 0.357 | 0.613
NCI-H2009 | 0.58 | 0.627 | 0.566 | 0.486 | 1.1 | 1.06 | 0.903 | 0.677 | 0.92 | 0.984 | 0.896 | 0.58 | 1 | 1 | 0.955 | 0.836 | 0.339 | 0.363 | 0.434 | 0.391
NCI-H2023 | 0.362 | 0.406 | 0.385 | 0.331 | 0.761 | 0.639 | 0.676 | 0.723 | 0.816 | 0.995 | 1.03 | 0.726 | 0.194 | 0.219 | 0.249 | 0.21 | 0.218 | 0.223 | 0.236 | 0.213
